Laboratory results reported in patent US10087165B2, “Fluoroquinolones and use thereof to treat bacterial infections” (UNIVERSITÉ PIERRE ET MARIE CURIE—PARIS 6 (UPMC), priority 2014, dated 2018).
Converted amounts (≈) assume the structure as drawn. Read-outs that look alike come from different tables or passages of the source.

Tests used:
M. tuberculosis H37Rv = assay: microbe, parasite or virus in culture; type: cell-based; details: for MIC: Mycobacterium tuberculosis
[1] = test system: M. tuberculosis H37Rv strain; assay: Minimal effective dosage in the murine TB model; type: in vivo, Balb/C/J female mice; parameters: Mice weight: unit not given here; details: for Survival: No. death: 10 mice
Procedure: Four-week-old Balb/C/J female mice were infected intravenously with 10^6 CFU of M. tuberculosis H37Rv strain. On the day following the infection (D1), 10 mice were sacrificed to determine the exact baseline values of spleen weight and CFU counts in the lungs. The remaining mice were allocated to the following treatment groups: an untreated negative control group for survival monitoring, a positive control group treated for 1 month with isoniazid (INH) 25 mg/kg/d, […] test groups were treated with Quin18 and Quin19 at increasing dosages (25 mg/kg/d; 50 mg/kg/d; 100 mg/kg/d; 150 mg/kg/d) given by oral gavage, and two additional test groups were treated intravenously with Quin18 25 mg/kg/d and 100 mg/kg/d. All the groups contained 10 mice and were treated from D1 to D28, 5 days a week. The parameters used for assessing the severity of infection and the effectiveness of treatments were survival rate, spleen weight, gross lung lesions and CFU counts in the lungs.
The minimal effective dosage was defined as the minimal dosage able to prevent mortality of the mice, spleen enlargement and the occurrence of gross lung lesions. CFU counts were considered to be a more precise way of determining the dose-ranging efficacy of Quin18 and Quin19.
Survival rates between groups were plotted on a Kaplan-Meier curve and compared using the log-rank test.

[2] = Acute toxicity in healthy female CD-1 mice after a single oral treatment; type: in vivo; details: for Macroscopic autopsy: Observations: sacrifice at end of study
Procedure: The aim of this study was to evaluate the acute toxicity of two new compounds (Quin 18 and Quin 19) in healthy female CD-1 after a single oral treatment at D0.
Toxicity of treatment was evaluated by monitoring of animals (general signs of pharmacologic and toxicity effects, morbidity, mortality and evident signs of toxicity, as well as twice-weekly monitoring for clinical signs and body weight) until the end of the experiment (D14). At the end of the experiment, animals were sacrificed and macroscopic autopsy was performed.
Mice of each group were administered by per os (PO) injection at 10 ml/kg according to the standard operating procedure No. TEC-078. The recommended volume for per os (PO) administration in mice is 10 ml/kg.
Morbidity, mortality and evident signs of toxicity of mice were considered daily from D0 until the end of the experiment (D14 or D15).
Monitoring of mice for detailed behavioral and clinical observations was performed twice a week from D0 until the end of the experiment (D14 or D15) according to the standard operating procedures No. TEC-192.
Body weight of mice was monitored at D1, D2 and then twice a week until the end of the experiment (D14 or D15) according to the standard operating procedures No. TEC-108. Weight loss was assessed against the starting weight of each mouse at D0.
During the course of the experiment, animals were sacrificed if any of the following occurs: • Signs of suffering (cachexia, weakening, difficulty to move or to eat), • Compound toxicity (hunching, convulsions), • 25% body weight loss on any day. Sacrifice of Animals
At D14 or D15, animals were be sacrificed by CO2 inhalation and a macroscopic autopsy was performed.

[3] = molecular target: M. tuberculosis DNA gyrase (Mycobacterium tuberculosis, UniProt P9WG45+P9WG47); assay: biochemical
Chain of M. tuberculosis DNA gyrase (P9WG47 whole entry): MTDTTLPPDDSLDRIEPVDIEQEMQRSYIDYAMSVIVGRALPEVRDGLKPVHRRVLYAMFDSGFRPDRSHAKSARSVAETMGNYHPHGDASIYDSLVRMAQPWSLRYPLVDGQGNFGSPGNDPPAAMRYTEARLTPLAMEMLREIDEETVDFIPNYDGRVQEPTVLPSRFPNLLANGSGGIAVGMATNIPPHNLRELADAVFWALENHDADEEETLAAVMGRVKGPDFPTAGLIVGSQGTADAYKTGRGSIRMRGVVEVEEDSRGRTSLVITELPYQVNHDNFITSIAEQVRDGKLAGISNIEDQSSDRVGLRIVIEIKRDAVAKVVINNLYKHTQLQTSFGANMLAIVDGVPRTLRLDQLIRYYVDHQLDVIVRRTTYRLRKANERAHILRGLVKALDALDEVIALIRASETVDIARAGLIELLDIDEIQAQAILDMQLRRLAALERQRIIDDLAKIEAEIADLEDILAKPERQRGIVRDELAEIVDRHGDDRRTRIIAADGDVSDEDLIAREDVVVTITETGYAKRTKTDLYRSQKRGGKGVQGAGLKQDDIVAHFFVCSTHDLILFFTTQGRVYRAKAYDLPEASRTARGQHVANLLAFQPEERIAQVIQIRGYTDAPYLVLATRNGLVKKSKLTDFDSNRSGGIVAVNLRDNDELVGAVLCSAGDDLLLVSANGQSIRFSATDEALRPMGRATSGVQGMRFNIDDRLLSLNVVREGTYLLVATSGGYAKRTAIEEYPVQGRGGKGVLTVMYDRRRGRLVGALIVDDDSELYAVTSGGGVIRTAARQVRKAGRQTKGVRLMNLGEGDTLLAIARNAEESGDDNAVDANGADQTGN
Chain of M. tuberculosis DNA gyrase (P9WG45 whole entry): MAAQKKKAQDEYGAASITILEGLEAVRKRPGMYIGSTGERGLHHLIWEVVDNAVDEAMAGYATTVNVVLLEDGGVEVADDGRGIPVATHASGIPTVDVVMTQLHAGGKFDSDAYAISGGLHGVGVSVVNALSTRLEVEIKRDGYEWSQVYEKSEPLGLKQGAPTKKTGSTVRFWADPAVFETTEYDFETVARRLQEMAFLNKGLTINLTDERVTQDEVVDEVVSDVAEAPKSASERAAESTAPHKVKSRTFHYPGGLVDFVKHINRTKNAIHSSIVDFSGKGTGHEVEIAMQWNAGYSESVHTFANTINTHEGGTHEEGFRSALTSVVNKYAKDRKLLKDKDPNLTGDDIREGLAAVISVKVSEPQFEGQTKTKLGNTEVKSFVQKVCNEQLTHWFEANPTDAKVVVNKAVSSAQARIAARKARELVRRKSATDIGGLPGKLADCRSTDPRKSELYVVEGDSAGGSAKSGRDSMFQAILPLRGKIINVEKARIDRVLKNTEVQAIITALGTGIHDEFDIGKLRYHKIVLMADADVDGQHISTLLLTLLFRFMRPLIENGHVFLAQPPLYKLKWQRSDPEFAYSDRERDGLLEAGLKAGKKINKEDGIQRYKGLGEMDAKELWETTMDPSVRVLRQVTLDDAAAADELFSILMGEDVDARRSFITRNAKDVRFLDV

CCCCCCCCN1CCN(c2c(F)cc3c(=O)c(C(=O)O)cn(C4CC4)c3c2OC)CC1 [Quin 18, 1-cyclopropyl-6-fluoro-8-methoxy-7-(4-octylpiperazin-1-yl)-4-oxo-1,4-dihydroquinoline-3-carboxylic acid]
antibacterial activity against wild-type M. tuberculosis strain (in words) (M. tuberculosis H37Rv; H37Rv): high antibacterial activity | MIC (M. tuberculosis H37Rv; H37RV, Table 3, read-out: MIC M. tuberculosis H37Rv): 0.12 µM (≈ 0.0568 µg/mL) | MIC (M. tuberculosis H37Rv; H37Rv, Table 2, read-out: MIC (M. tuberculosis) WT): ≤ 0.12 µM | Mice weight ([1]; 25 mg/kg/j, Gavage): 19.4 ± 0.9 | Spleen weight ([1]; 25 mg/kg/j, Gavage): 258.6 ± 155 mg | Survival: No. death ([1]; 25 mg/kg/j, Gavage, D1 to D28, 5 days a week): 0 | Mice weight ([1]; 25 mg/kg/j, Intravenously): 20 ± 1 | Spleen weight ([1]; 25 mg/kg/j, Intravenously): 391 ± 89.7 mg | Survival: No. death ([1]; 25 mg/kg/j, Intravenously): 0 | Mice weight ([1]; 50 mg/kg/j, Gavage): 20 ± 1.6 | Spleen weight ([1]; 50 mg/kg/j, Gavage): 231 ± 63.3 mg | Survival: No. death ([1]; 50 mg/kg/j, Gavage): 0 | Mice weight ([1]; 100 mg/kg/j, Gavage): 19.4 ± 1.5 | Spleen weight ([1]; 100 mg/kg/j, Gavage): 210 ± 104.1 mg | Survival: No. death ([1]; 100 mg/kg/j, Gavage): 0 | Mice weight ([1]; 100 mg/kg/j, Intravenously): 20 ± 1.1 | Spleen weight ([1]; 100 mg/kg/j, Intravenously): 400 ± 7.7 mg | Survival: No. death ([1]; 100 mg/kg/j, Intravenously): 1 | Mice weight ([1]; 150 mg/kg/j, Gavage): 20.3 ± 0.8 | Spleen weight ([1]; 150 mg/kg/j, Gavage): 239.8 ± 129.3 mg | Survival: No. death ([1]; 150 mg/kg/j, Gavage): 0 | Efficacy in a mouse model of tuberculosis (in words) ([1]; given orally): outstanding efficacy | Spleen weights compared with untreated group (in words) ([1]; treated intravenously): spleen weights similar than the untreated group | Survival compared with untreated group (in words) ([1]; whatever the dosage (25, 50, 100 and 150 mg/kg/d) and the administration route): statistically superior to untreated group | Loss of body weight (in words) ([2]; Group A1: 100 mg/kg PO Q1Dx1): did not exhibited any loss of body weight | Tolerance (in words) ([2]; Group A1: 100 mg/kg PO Q1Dx1, polysorbate 80 0.4%, with sonication): well tolerated | Mean body weight (MBW) ([2]; Group A1: 100 mg/kg PO Q1Dx1, with sonication, D1): 31.33 ± 0.8 g | Mean body weight (MBW) ([2]; Group A1: 100 mg/kg PO Q1Dx1, with sonication, D2): 31.2 ± 0.7 g | Mean body weight (MBW) ([2]; Group A1: 100 mg/kg PO Q1Dx1, with sonication, D3): 30.3 ± 0.53 g | Mean body weight (MBW) ([2]; Group A1: 100 mg/kg PO Q1Dx1, with sonication, D4): 30.47 ± 0.78 g | Mean body weight (MBW) ([2]; Group A1: 100 mg/kg PO Q1Dx1, with sonication, D7): 31.63 ± 0.49 g | Mean body weight (MBW) ([2]; Group A1: 100 mg/kg PO Q1Dx1, with sonication, D11): 32.3 ± 1.37 g | Mean body weight (MBW) ([2]; Group A1: 100 mg/kg PO Q1Dx1, with sonication, D14): 31.77 ± 0.76 g | Macroscopic autopsy: Observations ([2]; Group A1: 100 mg/kg PO Q1Dx1): NTR | Mean body weight (MBW) ([2]; Group A1: polysorbate 80 0.4%, 10 mg/ml with sonication, 100 mg/kg PO Q1Dx1, D0, 100 mg/kg): 31.5 ± 1.48 g | Loss of body weight (in words) ([2]; Group A2: 200 mg/kg PO Q1Dx1): did not exhibited any loss of body weight | Tolerance (in words) ([2]; Group A2: 200 mg/kg PO Q1Dx1, polysorbate 80 0.4%, with sonication): well tolerated | Mean body weight (MBW) ([2]; Group A2: 200 mg/kg PO Q1Dx1, with sonication, D1): 31.13 ± 1.01 g | Mean body weight (MBW) ([2]; Group A2: 200 mg/kg PO Q1Dx1, with sonication, D2): 30.27 ± 0.74 g | Mean body weight (MBW) ([2]; Group A2: 200 mg/kg PO Q1Dx1, with sonication, D3): 30.7 ± 0.44 g | Mean body weight (MBW) ([2]; Group A2: 200 mg/kg PO Q1Dx1, with sonication, D7): 31.67 ± 0.49 g | Mean body weight (MBW) ([2]; Group A2: 200 mg/kg PO Q1Dx1, with sonication, D10): 31.73 ± 0.95 g | Mean body weight (MBW) ([2]; Group A2: 200 mg/kg PO Q1Dx1, with sonication, D14): 32.6 ± 1.35 g | Macroscopic autopsy: Observations ([2]; Group A2: 200 mg/kg PO Q1Dx1): NTR | Mean body weight (MBW) ([2]; Group A2: polysorbate 80 0.4%, 20 mg/ml with sonication, 200 mg/kg PO Q1Dx1, D0, 200 mg/kg): 30.2 ± 1.15 g | Loss of body weight (in words) ([2]; Group A3: 100 mg/kg PO Q1Dx1): did not exhibited any loss of body weight | Tolerance (in words) ([2]; Group A3: 100 mg/kg PO Q1Dx1, polysorbate 80 0.4%): well tolerated | Mean body weight (MBW) ([2]; Group A3: 100 mg/kg PO Q1Dx1, without sonication, D1): 29.8 ± 1.05 g | Mean body weight (MBW) ([2]; Group A3: 100 mg/kg PO Q1Dx1, without sonication, D2): 30.4 ± 1.25 g | Mean body weight (MBW) ([2]; Group A3: 100 mg/kg PO Q1Dx1, without sonication, D4): 30 ± 1.01 g | Mean body weight (MBW) ([2]; Group A3: 100 mg/kg PO Q1Dx1, without sonication, D7): 31.33 ± 0.74 g | Mean body weight (MBW) ([2]; Group A3: 100 mg/kg PO Q1Dx1, without sonication, D11): 32.3 ± 2.02 g | Mean body weight (MBW) ([2]; Group A3: 100 mg/kg PO Q1Dx1, without sonication, D15): 32.17 ± 1.94 g | Macroscopic autopsy: Observations ([2]; Group A3: 100 mg/kg PO Q1Dx1): NTR | Mean body weight (MBW) ([2]; Group A3: polysorbate 80 0.4%, 10 mg/ml without sonication, 100 mg/kg PO Q1Dx1, D0, 100 mg/kg): 29.9 ± 1.25 g | Loss of body weight (in words) ([2]; Group A4: 200 mg/kg PO): did not exhibited any loss of body weight | Mean body weight (MBW) ([2]; Group A4: 200 mg/kg PO 2Q1Dx1, without sonication, D1): 29.73 ± 1.22 g | Mean body weight (MBW) ([2]; Group A4: 200 mg/kg PO 2Q1Dx1, without sonication, D2): 30.2 ± 1.31 g | Mean body weight (MBW) ([2]; Group A4: 200 mg/kg PO 2Q1Dx1, without sonication, D5): 30 ± 1.45 g | Mean body weight (MBW) ([2]; Group A4: 200 mg/kg PO 2Q1Dx1, without sonication, D9): 30.93 ± 3.04 g | Mean body weight (MBW) ([2]; Group A4: 200 mg/kg PO 2Q1Dx1, without sonication, D13): 31.73 ± 2.64 g | Mean body weight (MBW) ([2]; Group A4: 200 mg/kg PO 2Q1Dx1, without sonication, D14): 31.33 ± 1.63 g | Macroscopic autopsy: Observations ([2]; Group A4: 200 mg/kg PO 2Q1Dx1): NTR | Tolerance (in words) ([2]; Group A4: 200 mg/kg PO, polysorbate 80 0.4%): well tolerated | Mean body weight (MBW) ([2]; Group A4: polysorbate 80 0.4%, 10 mg/ml without sonication, 200 mg/kg PO 2Q1Dx1 (2 hours between the 2 injections), D0, 200 mg/kg): 29.5 ± 0.89 g | Autopsy, macroscopic observations (in words) ([2]; all treated groups): No particular sign was observed | Dose up to which well tolerated (maximal solubility) ([2]; in polysorbate 80 0.4%, PO, female mice): up to 200 mg/kg | Signs of toxicity at the dose levels tested (in words) ([2]; mice): no signs of toxicity | IC50 [3]: 195 µM
